Like-named read-outs stand apart in the source and are kept apart here.
Target: PHGDH (Homo sapiens (Human), UniProt O43175)
Test: 3-Phosphoglycerate Dehydrogenase (PHGDH) Fluorescence Intensity Assay, run at two NAD/3-PG ratios: PHGDH_HIGH_NAD/3-PG (250 μM NAD/500 μM 3-PG) and PHGDH_500_NAD/3-PG (500 μM NAD/500 μM 3-PG)
Format: biochemical
[1] = 250 μM NAD/500 μM 3-PG, read-out: IC50 (PHGDH_HIGH_NAD/3-PG)
[2] = 500 μM NAD/500 μM 3-PG, read-out: IC50 (PHGDH_500_NAD/3-PG)

PHGDH, sequence (O43175 2-533 limits assumed): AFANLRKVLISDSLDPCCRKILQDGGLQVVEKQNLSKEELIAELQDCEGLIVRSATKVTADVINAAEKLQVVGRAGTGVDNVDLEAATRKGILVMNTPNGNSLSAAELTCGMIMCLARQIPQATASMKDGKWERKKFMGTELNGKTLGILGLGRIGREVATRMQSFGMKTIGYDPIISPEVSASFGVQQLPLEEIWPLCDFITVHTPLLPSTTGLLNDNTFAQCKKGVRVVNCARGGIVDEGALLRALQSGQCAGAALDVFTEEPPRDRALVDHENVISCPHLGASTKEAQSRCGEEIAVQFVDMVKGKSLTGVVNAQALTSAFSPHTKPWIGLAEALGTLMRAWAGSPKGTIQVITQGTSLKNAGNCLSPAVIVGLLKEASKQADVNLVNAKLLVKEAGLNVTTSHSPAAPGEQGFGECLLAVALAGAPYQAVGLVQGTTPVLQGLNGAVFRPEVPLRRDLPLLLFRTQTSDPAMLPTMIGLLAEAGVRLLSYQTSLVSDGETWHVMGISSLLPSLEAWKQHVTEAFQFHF

| SMILES | IC50 [1] [nM] | IC50 [2] [nM] |
| --- | --- | --- |
| COC(=O)C[S@+]([O-])c1ccc([C@@H](CO)NC(=O)c2cc3c(Cl)c(Cl)c(C)cc3n2C)cc1 [Example 11-003, methyl 2-[(S)-4-[(1S)-1-[(4,5-dichloro-1,6-dimethyl-1H-indol-2-yl)formamido]-2-hydroxyethyl]benzenesulfinyl]acetate] | 89 | 137 |
| COC(=O)C[S+]([O-])c1ccc([C@@H](CO)NC(=O)c2cc3c(Cl)c(Cl)c(C)cc3n2C)cc1 (stereo partly drawn) [Example 11-004, methyl 2-{4-[(1S)-1-[(4,5-dichloro-1,6-dimethyl-1H-indol-2-yl)formamido]-2-hydroxyethyl]benzenesulfinyl}acetate] | 98 | 196 |
| Cc1cc2c(cc(C(=O)N[C@H](CO)c3ccc(S(=O)(=O)CC(=O)OC4CCOCC4)cc3)n2C)c(F)c1F [Example 09-037, oxan-4-yl 2-{4-[(1S)-1-[(4,5-difluoro-1,6-dimethyl-1H-indol-2-yl)formamido]-2-hydroxyethyl]benzenesulfonyl}acetate] | – | 578 |
| CCOC(=O)C(C)(C)S(=O)(=O)c1ccc([C@@H](C)NC(=O)c2cc3c(Cl)c(Cl)c(C)nc3n2C)cc1 [Example 05-016, ethyl 2-{4-[(1R)-1-({4,5-dichloro-1,6-dimethyl-1H-pyrrolo[2,3-b]pyridin-2-yl}formamido)ethyl]benzenesulfonyl}-2-methylpropanoate] | > 100000 | – |
| Cc1cc2c(cc(C(=O)N[C@H](CO)c3ccc(S(=O)(=O)CC(=O)O)cc3)n2C)c(F)c1F [Example 03-012, 2-{4-[(1S)-1-[(4,5-difluoro-1,6-dimethyl-1H-indol-2-yl)formamido]-2-hydroxyethyl]benzenesulfonyl}acetic acid] | 8 | 17 |
| Cc1cc(Cl)c2cc(C(=O)N[C@H](C)c3ccc(S(=O)(=O)CC(=O)OCC(COC(=O)C(C)(C)C)COC(=O)C(C)(C)C)cc3)n(C)c2c1 [Example 09-015, 2-{[(2-{4-[(1R)-1-[(4-chloro-1,6-dimethyl-1H-indol-2-yl)formamido]ethyl]benzenesulfonyl}acetyl)oxy]methyl}-3-[(2,2-dimethylpropanoyl)oxy]propyl 2,2-dimethylpropanoate] | 9190 | – |
| CCOC(=O)CS(=O)(=O)c1ccc(CNC(=O)c2cc3c(Cl)cc(C)cc3n2C)cc1 [Example 01-032, ethyl 2-(4-{[(4-chloro-1,6-dimethyl-1H-indol-2-yl)formamido]methyl}benzenesulfonyl)acetate] | 5940 | – |
| COC(=O)C[S@+]([O-])c1ccc([C@@H](C)NC(=O)c2cc3c(Cl)cc(C)cc3n2C)cc1 [Example 11-007, methyl 2-[(S)-4-[(1R)-1-[(4-chloro-1,6-dimethyl-1H-indol-2-yl)formamido]ethyl]benzenesulfinyl]acetate] | 234 | – |
| Cc1cc2c(cc(C(=O)N[C@H](CO)c3ccc(S(=O)(=O)CC(=O)OC(C)C)cc3)n2C)c(F)c1F [Example 01-039, propan-2-yl 2-{4-[(1S)-1-[(4,5-difluoro-1,6-dimethyl-1H-indol-2-yl)formamido]-2-hydroxyethyl]benzenesulfonyl}acetate] | 1120 | – |
| Cc1cc(Cl)c2cc(C(=O)N[C@H](CO)c3ccc(S(=O)(=O)CC(=O)OC(C)C)cc3)n(C)c2n1 [Example 01-034, propan-2-yl 2-{4-[(1S)-1-({4-chloro-1,6-dimethyl-1H-pyrrolo[2,3-b]pyridin-2-yl}formamido)-2-hydroxyethyl]benzenesulfonyl}acetate] | 1150 | – |
| COC(=O)CS(=O)(=O)c1ccc([C@H](C)NC(=O)c2cc3c(Cl)c(Cl)c(C)cc3n2C)cc1 [Example 01-017, methyl 2-{4-[(1S)-1-[(4,5-dichloro-1,6-dimethyl-1H-indol-2-yl)formamido]ethyl]benzenesulfonyl}acetate] | 6720 | – |
| C[C@@H](NC(=O)c1cc(-c2ccccc2)nn1C)c1ccc(S(=O)(=O)CC(=O)OCCF)cc1 [Example 10-004, 2-fluoroethyl 2-{4-[(1R)-1-[(1-methyl-3-phenyl-1H-pyrazol-5-yl)formamido]ethyl]benzenesulfonyl}acetate] | 1440 | – |
| CCCC(C(=O)OC)S(=O)(=O)c1ccc([C@@H](C)NC(=O)c2cc3c(Cl)cc(C)cc3n2C)cc1 (stereo partly drawn) [Example 05-015, methyl 2-{4-[(1R)-1-[(4-chloro-1,6-dimethyl-1H-indol-2-yl)formamido]ethyl]benzenesulfonyl}pentanoate] | 3470 | – |
| Cc1cc2c(cc(C(=O)N[C@H](CO)c3ccc([S@@+]([O-])CC(=O)OC(C)C)cc3)n2C)c(Cl)c1Cl [Example 13-002, propan-2-yl 2-[(S)-4-[(1S)-1-[(4,5-dichloro-1,6-dimethyl-1H-indol-2-yl)formamido]-2-hydroxyethyl]benzenesulfinyl]acetate] | 819 | 1020 |
| COC(=O)C[S@@+]([O-])c1ccc([C@@H](C)NC(=O)c2cc3c(Cl)cc(C)cc3n2C)cc1 [Example 11-006, methyl 2-[(R)-4-[(1R)-1-[(4-chloro-1,6-dimethyl-1H-indol-2-yl)formamido]ethyl]benzenesulfinyl]acetate] | 1120 | – |
| Cc1cc2c(cc(C(=O)N[C@H](CO)c3ccc([S@+]([O-])CC(=O)OC4CCOCC4)cc3)n2C)c(Cl)c1Cl [Example 13-005, oxan-4-yl 2-[(R)-4-[(1S)-1-[(4,5-dichloro-1,6-dimethyl-1H-indol-2-yl)formamido]-2-hydroxyethyl]benzenesulfinyl]acetate] | – | 191 |
| Cc1cc(Cl)c2cc(C(=O)N[C@H](C)c3ccc(S(=O)(=O)CC(=O)OC(C)C)cc3)n(C)c2n1 [Example 01-036, propan-2-yl 2-{4-[(1R)-1-({4-chloro-1,6-dimethyl-1H-pyrrolo[2,3-b]pyridin-2-yl}formamido)ethyl]benzenesulfonyl}acetate] | 1830 | – |
| Cc1cc2c(cc(C(=O)N[C@H](C)c3ccc(S(=O)(=O)C4CCCOC4=O)cc3)n2C)c(Cl)c1Cl (stereo partly drawn) [Example 05-025, 4,5-dichloro-1,6-dimethyl-N-[(1R)-1-{4-[(2-oxooxan-3-yl)sulfonyl]phenyl}ethyl]-1H-indole-2-carboxamide] | – | 20 |
| Cc1cc(Cl)c2cc(C(=O)N[C@H](C)c3ccc(S(=O)(=O)CC(=O)OCC4CC4)cc3)n(C)c2c1 [Example 09-016, cyclopropylmethyl 2-{4-[(1R)-1-[(4-chloro-1,6-dimethyl-1H-indol-2-yl)formamido]ethyl]benzenesulfonyl}acetate] | 2100 | – |
| Cc1cc(Cl)c2cc(C(=O)N[C@H](C)c3ccc([S@+]([O-])CC(=O)O)cc3)n(C)c2c1 [Example 12-005, 2-[(R)-4-[(1R)-1-[(4-chloro-1,6-dimethyl-1H-indol-2-yl)formamido]ethyl]benzenesulfinyl]acetic acid] | 17 | 28 |
| CC(C)OC(=O)C(C)S(=O)(=O)c1ccc([C@@H](C)NC(=O)c2cc(-c3ccccc3)nn2C)cc1 (stereo partly drawn) [Example 06-004, propan-2-yl 2-{4-[(1R)-1-[(1-methyl-3-phenyl-1H-pyrazol-5-yl)formamido]ethyl]benzenesulfonyl}propanoate] | 78200 | – |
| COC(=O)CS(=O)(=O)c1ccc([C@@H](C)NC(=O)c2cc(-c3cccc4cc[nH]c34)nn2C)cc1 [Example 02-006, methyl 2-{4-[(1R)-1-{[3-(1H-indol-7-yl)-1-methyl-1H-pyrazol-5-yl]formamido}ethyl]benzenesulfonyl}acetate] | 1270 | – |

Source: patent US11304929B2, “Tosylacetate based compounds and derivatives thereof as PHGDH inhibitors” (priority 2017, dated 2022)
